These results are taken from patent US6475724B1, “Nucleic acids, kits, and methods for the diagnosis, prognosis and treatment of glaucoma and related disorders” (The Regents of the University of California, priority 1997, dated 2002).

“Also recorded” adds a separate entry of the source.

The nature of data set [1]: IOP response to topical dexamethasone eye drops, Armaly criteria. Type of data set: in vivo, human. As to conditions: topical dexamethasone eye drops (0.1%) four times a day for four weeks; one line per subject (subjects 1-7); pre- vs post-treatment IOP. How it is done:
Subjects are given standard topical dexamethasone eye drops (0.1%) four times a day, for four weeks. Pre-treatment and post-treatment IOP readings are taken and patients are classified as having high (>16 mmHg), intermediate (6-16 mmHg) or low (<6 mmHg) IOP responses under the “Armaly” criteria. DNA samples are obtained from four subjects having high or intermediate IOP changes. Samples from several non-responder patients were also taken. The DNA samples were analyzed for the presence of the TIGRmt11 variant sequence, as discussed above.

The subject of data set [2] is TIGR gene. The data set is described as follows: Induction of the TIGR gene by stress stimulants. Type of data set: cell-based.
The subject of data set [3] is HTM cells. Description: TIGR 5′ region/promoter AP reporter activity in HTM cells. In kind it is cell-based, human. As to conditions: attached reporter gene. As to the method: The 283 base 5′ fragment of the TIGR 5′ region (SEQ ID NO: 37) is amplified from genomic DNA of a normal human subject as discusssed in Example 3. The DNA is cloned into a pSEAP vector (Clontech, Calif.) so that transcription was under the control of the TIGR sequences. More specifically, pSEAP2-enhancer vector is digested with Srfl to produce a blunt end. The 283 bp fragment is blunt end ligated to the vector using T4 ligase for 2 hours. The vector is transfected into DH5 cells to establish a plasmid clone, TMRE-1/pSEAP. PCR sequencing is used to verify the clone sequence as correct. Similarly, the equivalent genomic fragment amplified from a steroid responder sample, identified as mutant TIGR.mt11, is cloned in pSEAP2-enhancer and called clone TIGR.mt11/pSEAP.
HTM cells, Cos cells (COS-7), and HeLa cells (HeLa 229) are seeded at 10^6 cells per well and incubated with 1 ug of the plasmid DNA to transfect using Lipofectin reagent (GIBCO, Life Technologies, Md.). Some samples of cells were also treated with dexamethasone (DEX). Then, 24, 48, and 72 hours after transfection, AP activity was measured. Cells are collected using a buffer containing L-homoarginine and the chemiluminescent substrate CSPD and a chemiluminescent enhancer added to the samples. The expression levels are then recorded using a luminometer or by brief exposure to X-ray film. […]
On the technique in general: Reporter assays use an easily measured gene product as a stand-in for the process of interest.

`C[C@@H]1C[C@H]2[C@@H]3CCC4=CC(=O)C=C[C@]4(C)[C@@]3(F)[C@@H](O)C[C@]2(C)[C@@]1(O)C(=O)CO` [dexamethasone]: in data set [1], the “CS-IOP Response” value was “Low (low (<6 mmHg)); also recorded: Intermediate (intermediate (6-16 mmHg)); also recorded: High (high (>16 mmHg))”. Turning to `OO` [H2O2], the “induction of TIGR gene” value in data set [2] is reported as “induced”. As for `CCCCCCCCCCCCCC(=O)O[C@@H]1[C@@H](C)[C@@]2(O)[C@@H](C=C(CO)C[C@]3(O)C(=O)C(C)=C[C@@H]23)[C@H]2C(C)(C)[C@]12OC(C)=O` [TPA, 12-O-tetradecanolyphorbol-13-acetate], the “induction of TIGR gene” value in data set [2] is “induced”.

B1: SEQ ID NO: 37: 283 bp region from 5340 to 5044 of SEQ ID NO: 3, TIGR 5′ regulatory region (nucleic acid, listed as Homo sapiens)
DNA: AACTATTATTGGGGTATGGGTGCATAAATTGGGATGTTCTTTTTAAAAAGAAACTCCAAACAGACTTCTGGAAGGTTATTTTCTAAGAATCTTGCTGGCAGCGTGAAGGCAACCCCCCTGTGCACAGCCCCACCCAGCCTCACGTGGCCACCTCTGTCTTCCCCCATGAAGGGCTGGCTCCCCAGTATATATAAACCTCTCTGGAGCTCGGGCATGAGCCAGCAAGGCCACCCATCCAGGCACCTCTCAGCACAGCAGAGCTTTCCAGAGGAAGCCTCACCAA
On to B1, for which the “expression of AP activity, HTM cells compared with HeLa or Cos cells” value in data set [3] is “much higher”.
